Assay results: paper PMC11594562, “Novel Peptide–Drug Conjugates with Dual Anticancer Activity” (International Journal of Molecular Sciences, 2024)
Read-outs that look alike come from different tables or passages of the source. Residues, ends and D or L forms follow the SMILES beside them.

Experiments:
[1] = target: Tyrosyl-DNA-phosphodiesterase 1 (TDP1); settings: Figure 1; cited from earlier work
TDP1 = target: T1, TDP1 (Homo sapiens, UniProt Q9NUW8); assay: biochemical; assay type: biochemical; settings: for Increase in TDP1 IC50 compared to parent TDP1 inhibitor: conjugate 7 vs 4, conjugate 8 vs 5
T1 construct: made in house; host or cells: E. coli
Description: These conjugates and their individual components were tested in a real-time fluorescent assay of TDP1 inhibition.
Recombinant TDP1 protein was expressed in E. coli (the pET 16B plasmid containing TDP1 cDNA was kindly provided by Dr. K.W. Caldecott, University of Sussex, United Kingdom) and isolated as described in [60]. The final volume (200 μL) of the reaction mixture contained TDP1 reaction buffer (50 mM Tris-HCl, pH 8.0, 50 mM NaCl, 7 mM β-mercaptoethanol), 50 nM oligonucleotide substrate, and varied concentrations of the tested compounds. Purified TDP1 was added at a final concentration of 1.5 nM. The TDP1 reaction mixtures were incubated at a constant temperature of 26 °C in a POLARstar OPTIMA fluorimeter (BMG LABTECH, Offenburg, Germany). The fluorescence intensity was measured (Ex. 485/Em. 520 nm) every 1 min for 10 minutes. The efficiency of TDP1 inhibition was evaluated by comparing the rate of increase in the fluorescence of the biosensor in the presence of compound 4 or 5 to that of DMSO (1.5%) in control wells. IC50 values were determined using an eleven-point concentration response curve by MARS Data Analysis 2.0 (BMG LABTECH), and the slope during the linear phase was calculated. The IC50 measurements were carried out in at least three independent experiments.

[2] = system: MCF-7 (adenocarcinoma) cells; assay: MTT cytotoxicity assay, MCF-7 cells; settings: for GI50: Homo sapiens, MCF7, 48 h, read-out: Cytotoxic dose GI50; for Cytotoxic dose GI80 / Cytotoxic dose GI90: MCF-7, 48 h, MTT
Description: (§1) Next, the conjugates and their parent agents were evaluated in a cytotoxicity assay. Human glioblastoma (SNB19, T98G) and adenocarcinoma (MCF-7) cell lines were used in this study.
(§2) Human cancer cells of the SNB19, T98G (cells of human glioblastoma), and MCF-7 (adenocarcinoma) lines, along with cells derived from the kidney of an African green monkey (Vero), were used in this study. These cell lines were obtained from the cell collection of the State Research Center for Virology and Biotechnology “Vector” of Rospotrebnadzor, Koltsovo, Novosibirsk Region. They were cultured in DMEM/F12 medium containing 10% foetal bovine serum, L-glutamine (2 mmol/L), and gentamicin (80 µg/mL) in a CO2 incubator at 37 °C. The tested compounds were dissolved in DMSO (4 and 5) or H2O (6, 7, and 8) and added to the cellular culture at the required concentrations. Three wells were used for each concentration. The cells that were incubated without the compounds were used as controls. Cells were placed in 96-well microplates and cultivated at 37 °C in 5% CO2/95% air for 48 h. The cell viability was assessed through an MTT [3-(4,5-dimethylthiazol-2-yl)-2,5-phenyl-2H-tetrazolium bromide] conversion assay, where 1% MTT was added to each well. Four hours later, the medium was removed, leaving the formazan crystals, and isopropanol was added and mixed for 15 min. The optical density of the samples was measured on a TECAN Sunrise multi-well spectrophotometer at a wavelength of 570 nm, with a reference of 670 nm. The 50% cytotoxic dose (GI50) of each compound (i.e., the compound concentration that lowers the amount of cells to 50% in a culture, or decreases the optical density twofold as compared to the control wells) was calculated from the obtained data. Statistical processing of the results was performed using the Microsoft Excel-2007, […] 6.0, and GraphPad Prism 5.0 programs.

SNB19 glioblastoma cells = assay: MTT cytotoxicity assay, SNB19 cells; settings: for GI50: Homo sapiens, SNB-19, 48 h, read-out: Cytotoxic dose GI50; for Cytotoxic dose GI80 / Cytotoxic dose GI90: SNB19, 48 h, MTT
Description: as §1, §2

T98G glioblastoma cells = assay: MTT cytotoxicity assay, T98G cells; settings: T98G, 48 h; for GI50: Homo sapiens, read-out: Cytotoxic dose GI50; for Cytotoxic dose GI80 / Cytotoxic dose GI90: MTT
Description: as §1, §2

[3] = MTT cytotoxicity assay, non-malignant Vero cells; settings: African green monkey
From the text: (§3) Against the T98G glioblastoma cells, the conjugation yields activities that are intermediate between those of the usnic acid and peptide components for both the hydrazinothiazole- and benzylidenefuranone-based candidates (4 and 5, respectively).
as §2

Vero cells = assay: MTT cytotoxicity assay, non-malignant Vero cells; settings: Vero, 48 h, MTT
From the text: as §3, §2

[4] = Solubility in water / DMSO; assay type: physicochemical; settings: water vs DMSO
From the text: Three wells were used for each concentration.

[5] = MTT cytotoxicity assay, MCF-7 cells; settings: human, MCF-7 adenocarcinoma cells
Description: as §1, §2

[6] = MTT cytotoxicity assay, SNB19 cells; settings: human, SNB19 glioblastoma cells
Description: as §1, §2

[7] = MTT cytotoxicity assay, T98G cells; settings: human
Description: as §1, §2

MCF-7 cells = settings: native L-K6 sequence; read-out: IC50 (cytotoxicity of native sequence); cited from earlier work
[8] = Vero cells (non-malignant kidney cell line)
[9] = recombinant TDP1 1.5 nM, 50 nM substrate, 26 °C

T1 sequence (Q9NUW8 whole entry): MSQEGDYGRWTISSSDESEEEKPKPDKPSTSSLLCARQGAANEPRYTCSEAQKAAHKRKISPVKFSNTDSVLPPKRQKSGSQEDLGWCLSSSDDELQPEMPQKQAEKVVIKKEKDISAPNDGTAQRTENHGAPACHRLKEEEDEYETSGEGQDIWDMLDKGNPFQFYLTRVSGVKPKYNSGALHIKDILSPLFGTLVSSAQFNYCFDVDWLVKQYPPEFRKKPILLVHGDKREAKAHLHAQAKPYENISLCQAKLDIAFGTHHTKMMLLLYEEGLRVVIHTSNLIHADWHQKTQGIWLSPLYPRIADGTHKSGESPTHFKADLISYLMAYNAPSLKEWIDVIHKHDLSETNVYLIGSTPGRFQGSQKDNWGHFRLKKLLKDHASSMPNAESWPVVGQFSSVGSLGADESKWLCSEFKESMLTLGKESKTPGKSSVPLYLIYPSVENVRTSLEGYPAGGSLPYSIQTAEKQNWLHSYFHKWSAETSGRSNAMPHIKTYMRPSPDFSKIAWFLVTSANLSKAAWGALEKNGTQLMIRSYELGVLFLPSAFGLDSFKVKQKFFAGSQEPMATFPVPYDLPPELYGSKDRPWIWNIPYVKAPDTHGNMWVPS

CC(=O)c1c(O)c(C)c(O)c2c1OC1=CC(=O)/C(=C(/C)NCCCc3cc(C(C)(C)C)c(O)c(C(C)(C)C)c3)C(=O)[C@@]12C [Compound 2, reference compound]
IC50 [1]: 0.16 µM

CC(=O)C1=C(O)C=C2Oc3c(C(=O)CSC#N)c(O)c(C)c(O)c3[C@@]2(C)C1=O [Compound 3, reference compound]
IC50 [1]: 1.16 µM

CC(=O)C1=C(O)C=C2Oc3c(-c4csc(N/N=C/c5ccc(Br)cc5)n4)c(O)c(C)c(O)c3[C@@]2(C)C1=O [Compound 4]
IC50 (TDP1): 0.026 ± 0.011 µM
GI50 [2]: 2.8 ± 0.07 µM
Cytotoxic dose GI80 [2]: 4.7 ± 0.21 µM
Cytotoxic dose GI90 [2]: 5.5 ± 0.41 µM
GI50 (SNB19 glioblastoma cells): 20.5 ± 2.27 µM
Cytotoxic dose GI80 (SNB19 glioblastoma cells): 61 ± 1.78 µM
Cytotoxic dose GI90 (SNB19 glioblastoma cells): 83 ± 1.87 µM
GI50 (T98G glioblastoma cells): 10.1 ± 0.67 µM
Cytotoxic dose GI80 (T98G glioblastoma cells): 51 ± 1.08 µM
Cytotoxic dose GI90 (T98G glioblastoma cells): 90 ± 3.94 µM
GI50 at 48 h [3, 8]: 4.1 ± 1.66 µM
Cytotoxic dose GI80 (Vero cells): 48 ± 16.76 µM
Cytotoxic dose GI90 (Vero cells): >100 µM
Solubility [4]: require DMSO for solubility
IC50 [1]: 0.026 µM

CC(=O)C1=C(O)C=C2Oc3c4c(c(C)c(O)c3[C@@]2(C)C1=O)O/C(=C\c1ccc(Br)cc1)C4=O [Compound 5]
IC50 (TDP1; [9]): 0.15 ± 0.03 µM
GI50 [2]: 2.2 ± 0.31 µM
Cytotoxic dose GI80 [2]: 3.9 ± 0.87 µM
Cytotoxic dose GI90 [2]: 4.7 ± 1.59 µM
GI50 (SNB19 glioblastoma cells): > 100 µM
Cytotoxic dose GI80 (SNB19 glioblastoma cells): >100 µM
Cytotoxic dose GI90 (SNB19 glioblastoma cells): >100 µM
GI50 (T98G glioblastoma cells): 21 ± 2.6 µM
Cytotoxic dose GI80 (T98G glioblastoma cells): >100 µM
Cytotoxic dose GI90 (T98G glioblastoma cells): >100 µM
GI50 at 48 h [3, 8]: > 100 µM
Cytotoxic dose GI80 (Vero cells): >100 µM
Cytotoxic dose GI90 (Vero cells): >100 µM
Solubility [4]: require DMSO for solubility
IC50 [1]: 0.15 µM

CC[C@H](C)[C@H](NC(=O)CNN)C(=O)N[C@@H](CCCCN)C(=O)N[C@@H](CCCCN)C(=O)N[C@H](C(=O)N[C@@H](CC(C)C)C(=O)N[C@@H](CO)C(=O)N[C@@H](CCCCN)C(=O)N[C@H](C(=O)N[C@@H](CCCCN)C(=O)N[C@@H](CCCCN)C(=O)N[C@@H](CC(C)C)C(=O)N[C@@H](CC(C)C)C(=O)N[C@@H](CCCCN)C(N)=O)[C@@H](C)CC)[C@@H](C)CC [Compound 6] (HELM PEPTIDE1{[NNCC(=O)[*:2]].I.K.K.I.L.S.K.I.K.K.L.L.K.[am]}$$$$V2.0)
IC50 (TDP1; [9]): 1.8 ± 0.6 µM
GI50 at 48 h [5]: 39 ± 6.08 µM
Cytotoxic dose GI80 [2]: 81 ± 16 µM
Cytotoxic dose GI90 [2]: >100 µM
GI50 at 48 h [6]: > 100 µM
Cytotoxic dose GI80 (SNB19 glioblastoma cells): >100 µM
Cytotoxic dose GI90 (SNB19 glioblastoma cells): >100 µM
GI50 at 48 h [7]: > 100 µM
Cytotoxic dose GI80 (T98G glioblastoma cells): >100 µM
Cytotoxic dose GI90 (T98G glioblastoma cells): >100 µM
GI50 at 48 h ([3]; Vero cells): 64 ± 13.7 µM
Cytotoxic dose GI80 (Vero cells): >100 µM
Cytotoxic dose GI90 (Vero cells): >100 µM

CC[C@H](C)[C@H](NC(=O)Cn1nc(C)c2c1C=C1Oc3c(-c4csc(N/N=C/c5ccc(Br)cc5)n4)c(O)c(C)c(O)c3[C@@]1(C)C2=O)C(=O)N[C@@H](CCCCN)C(=O)N[C@@H](CCCCN)C(=O)N[C@H](C(=O)N[C@@H](CC(C)C)C(=O)N[C@@H](CO)C(=O)N[C@@H](CCCCN)C(=O)N[C@H](C(=O)N[C@@H](CCCCN)C(=O)N[C@@H](CCCCN)C(=O)N[C@@H](CC(C)C)C(=O)N[C@@H](CC(C)C)C(=O)N[C@@H](CCCCN)C(N)=O)[C@@H](C)CC)[C@@H](C)CC [Compound 7] (HELM PEPTIDE1{[Cc1nn(CC(=O)[*:2])c2c1C(=O)[C@@]1(C)C(=C2)Oc2c(-c3csc(N/N=C/c4ccc(Br)cc4)n3)c(O)c(C)c(O)c21].I.K.K.I.L.S.K.I.K.K.L.L.K.[am]}$$$$V2.0)
Increase in TDP1 IC50 compared to parent TDP1 inhibitor (TDP1): approximately 6.5 fold
GI50 at 48 h [5]: 65 ± 15.3 µM
Cytotoxic dose GI80 [2]: >100 µM
Cytotoxic dose GI90 [2]: >100 µM
GI50 at 48 h [6]: 18 ± 0.35 µM
Cytotoxic dose GI80 (SNB19 glioblastoma cells): 68 ± 3.34 µM
Cytotoxic dose GI90 (SNB19 glioblastoma cells): >100 µM
GI50 at 48 h [7]: 42 ± 3.02 µM
Cytotoxic dose GI80 (T98G glioblastoma cells): 82 ± 1.78 µM
Cytotoxic dose GI90 (T98G glioblastoma cells): >100 µM
GI50 at 48 h ([3]; Vero cells): 33 ± 3.53 µM
Cytotoxic dose GI80 (Vero cells): >100 µM
Cytotoxic dose GI90 (Vero cells): >100 µM

CC[C@H](C)[C@H](NC(=O)Cn1nc(C)c2c1C=C1Oc3c4c(c(C)c(O)c3[C@@]1(C)C2=O)O/C(=C\c1ccc(Br)cc1)C4=O)C(=O)N[C@@H](CCCCN)C(=O)N[C@@H](CCCCN)C(=O)N[C@H](C(=O)N[C@@H](CC(C)C)C(=O)N[C@@H](CO)C(=O)N[C@@H](CCCCN)C(=O)N[C@H](C(=O)N[C@@H](CCCCN)C(=O)N[C@@H](CCCCN)C(=O)N[C@@H](CC(C)C)C(=O)N[C@@H](CC(C)C)C(=O)N[C@@H](CCCCN)C(N)=O)[C@@H](C)CC)[C@@H](C)CC [Compound 8] (HELM PEPTIDE1{[Cc1nn(CC(=O)[*:2])c2c1C(=O)[C@@]1(C)C(=C2)Oc2c3c(c(C)c(O)c21)O/C(=C\c1ccc(Br)cc1)C3=O].I.K.K.I.L.S.K.I.K.K.L.L.K.[am]}$$$$V2.0)
Increase in TDP1 IC50 compared to parent TDP1 inhibitor (TDP1): ~2.3 fold
GI50 at 48 h [5]: 36 ± 1.24 µM
Cytotoxic dose GI80 [2]: 72 ± 2.4 µM
Cytotoxic dose GI90 [2]: >100 µM
GI50 at 48 h [6]: 16.5 ± 0.35 µM
GI50 at 48 h ([6]; Cytotoxic dose GI50, SNB19, 48 h, MTT): 16 µM
Cytotoxic dose GI80 (SNB19 glioblastoma cells): 56 ± 0.7 µM
Cytotoxic dose GI90 (SNB19 glioblastoma cells): 85 ± 2.32 µM
GI50 at 48 h [7]: 38 ± 1.22 µM
Cytotoxic dose GI80 (T98G glioblastoma cells): 80 ± 2.86 µM
Cytotoxic dose GI90 (T98G glioblastoma cells): >100 µM
GI50 at 48 h ([3]; Vero cells): 18 ± 3.18 µM
Cytotoxic dose GI80 (Vero cells): >100 µM
Cytotoxic dose GI90 (Vero cells): >100 µM

L-K6 (IKKILSKIKKLLK; HELM PEPTIDE1{[NNCC(=O)[*:2]].I.K.K.I.L.S.K.I.K.K.L.L.K.[am]}$$$$V2.0; N-terminus assumed; SMILES CC[C@H](C)[C@H](NC(=O)CNN)C(=O)N[C@@H](CCCCN)C(=O)N[C@@H](CCCCN)C(=O)N[C@H](C(=O)N[C@@H](CC(C)C)C(=O)N[C@@H](CO)C(=O)N[C@@H](CCCCN)C(=O)N[C@H](C(=O)N[C@@H](CCCCN)C(=O)N[C@@H](CCCCN)C(=O)N[C@@H](CC(C)C)C(=O)N[C@@H](CC(C)C)C(=O)N[C@@H](CCCCN)C(N)=O)[C@@H](C)CC)[C@@H](C)CC)
IC50 (MCF-7 cells): 23 µM
